Source: patent US10759781B2, “Substituted guanidine derivatives” (UBE INDUSTRIES, LTD., priority 2015, dated 2020)
Counter-ions that a name gives are not always drawn.

Assays:
[1] = target: T1, Human VAP-1 enzyme (Homo sapiens, UniProt Q16853); experiment: Human VAP-1 enzyme inhibition test; format: biochemical; conditions: 1 h; compound 30 nM; 14C-benzylamine 100 μM; read-out: inhibition ratio (human VAP-1 enzyme)
T1 construct: purchased R&D Systems, Inc
T1 sequence (Q16853 1-763): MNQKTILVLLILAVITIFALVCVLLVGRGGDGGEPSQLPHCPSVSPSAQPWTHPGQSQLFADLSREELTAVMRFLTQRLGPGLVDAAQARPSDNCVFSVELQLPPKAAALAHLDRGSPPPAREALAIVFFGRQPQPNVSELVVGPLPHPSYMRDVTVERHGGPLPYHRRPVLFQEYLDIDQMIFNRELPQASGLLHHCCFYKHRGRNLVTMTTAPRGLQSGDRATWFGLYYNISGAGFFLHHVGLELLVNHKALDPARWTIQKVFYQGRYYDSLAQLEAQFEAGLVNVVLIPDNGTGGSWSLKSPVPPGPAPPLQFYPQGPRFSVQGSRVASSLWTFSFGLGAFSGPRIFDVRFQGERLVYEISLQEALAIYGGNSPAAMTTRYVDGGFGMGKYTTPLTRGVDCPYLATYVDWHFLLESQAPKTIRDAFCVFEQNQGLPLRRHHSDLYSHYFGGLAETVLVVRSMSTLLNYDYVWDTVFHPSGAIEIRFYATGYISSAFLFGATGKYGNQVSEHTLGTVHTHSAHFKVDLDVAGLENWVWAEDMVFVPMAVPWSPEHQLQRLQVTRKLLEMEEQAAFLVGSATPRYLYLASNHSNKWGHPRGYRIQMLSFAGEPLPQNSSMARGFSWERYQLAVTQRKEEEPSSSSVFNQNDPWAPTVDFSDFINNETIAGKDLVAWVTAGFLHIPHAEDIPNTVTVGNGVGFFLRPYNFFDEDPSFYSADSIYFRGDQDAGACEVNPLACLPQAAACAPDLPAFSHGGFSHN
In short: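 Recombinant human VAP-1 pre-incubated 20 min at room temperature with compound in DMSO, then reacted with 14C-benzylamine (100 μM final) 1 h at 37 °C. Citric acid stop; oxidized product extracted into toluene/ethyl acetate and counted by liquid scintillation. Inhibition ratio relative to DMSO-only activity.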

[2] = target: T2, Rat Plasma VAP-1 (Rattus norvegicus, UniProt O08590); experiment: (Ex vivo) rat plasma VAP-1 inhibition test after oral administration of the compound; format: in vivo; conditions: 3 hours after oral administration, SD male rats, read-out: inhibition ratio (plasma VAP-1, ex vivo)
T2 construct: from tissue; host or cells: plasma of SD male rats (7-12 weeks old) after oral dosing
T2 sequence (O08590 28-763 limits assumed): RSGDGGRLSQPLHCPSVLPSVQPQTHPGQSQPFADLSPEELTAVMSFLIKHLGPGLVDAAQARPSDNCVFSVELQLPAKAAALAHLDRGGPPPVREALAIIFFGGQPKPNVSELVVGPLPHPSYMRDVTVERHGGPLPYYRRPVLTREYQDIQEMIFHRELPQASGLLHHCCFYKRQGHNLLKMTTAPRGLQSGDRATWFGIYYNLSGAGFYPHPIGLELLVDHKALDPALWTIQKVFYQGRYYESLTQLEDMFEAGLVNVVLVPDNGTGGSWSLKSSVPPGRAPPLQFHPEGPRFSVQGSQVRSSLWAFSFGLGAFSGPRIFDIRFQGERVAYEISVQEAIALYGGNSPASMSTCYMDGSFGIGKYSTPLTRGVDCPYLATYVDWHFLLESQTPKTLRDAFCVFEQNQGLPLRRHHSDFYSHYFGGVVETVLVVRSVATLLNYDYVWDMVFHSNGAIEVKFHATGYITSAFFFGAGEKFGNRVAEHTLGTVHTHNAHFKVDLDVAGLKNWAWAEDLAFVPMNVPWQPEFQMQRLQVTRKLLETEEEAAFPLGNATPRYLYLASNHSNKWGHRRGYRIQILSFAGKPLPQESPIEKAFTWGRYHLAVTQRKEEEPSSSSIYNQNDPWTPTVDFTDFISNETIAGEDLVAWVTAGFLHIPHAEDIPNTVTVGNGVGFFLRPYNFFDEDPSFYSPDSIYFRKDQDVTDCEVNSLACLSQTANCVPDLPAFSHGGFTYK
Method: (Ex Vivo) Rat Plasma VAP-1 Inhibition Test after Oral Administration of the Compound
The compound was orally administered (0.3-10 mg/kg) to 7-12 week old SD male rats in the non-fasting state. Under anesthesia, the blood was collected in heparin tubes from the jugular vein before the administration and 3, 8 and 24 hours after the administration. The blood was centrifuged at 14000 rpm for 10 minutes to get plasma. The VAP-1 enzyme activity in the plasma was measured by radiochemical enzyme assay.
The radiochemical enzyme assay was conducted by modifying the method of P. H. Yu et al. (Diabetologia 40 1243 (1997)). ^14C-benzylamine (2.5 μM) was added to the obtained plasma, and was incubated at 37° C. for 3 hours. The reaction was terminated by the addition of 100 μL of 2 M citric acid solution to the reaction solution. The oxidative product was extracted using a toluene/ethyl acetate mixture and the radioactivity was measured with a liquid scintillation counter. The inhibition ratio of the compound was calculated using the following equation. Inhibition ratio={1−[Plasma VAP-1 activity after administration of the compound]/[Plasma VAP-1 activity before administration]}×100

Row | Structure (SMILES) | inhibition at 0.03 µM [1] [%] | inhibition in vivo at 0.3 mg/kg [2] [%]
1 | CC(=O)OCCON=C1CCN(c2ncc(-c3cccc(COC(=O)NC(=N)N)c3F)cn2)CC1 [Example 68, 2-[({1-[5-(3-{[(Carbamimidoylcarbamoyl)oxy]methyl}-2-fluorophenyl)pyrimidin-2-yl]piperidin-4-ylidene}amino)oxy]ethyl acetate] | ≥ 50 | ≥ 50
2 | N=C(N)NC(=O)OCc1cccc(-c2cnc(N3CCC(=NOCC(O)CO)CC3)nc2)c1F (centres unmarked) [Example 99, 3-(2-{4-[(2,3-Dihydroxypropoxy)imino]piperidin-1-yl}pyrimidin-5-yl)-2-fluorobenzyl carbamimidoylcarbamate] | ≥ 50 | ≥ 50
3 | N=C(N)NC(=O)OCc1cccc(-c2cnc(N3CCC(=NOCCCCO)CC3)nc2)c1F [Example 87, 2-Fluoro-3-(2-{4-[(4-hydroxybutoxy)imino]piperidin-1-yl}pyrimidin-5-yl)benzyl carbamimidoylcarbamate hydrochloride] | ≥ 50 | ≥ 50
4 | N=C(N)NC(=O)OCc1cccc(-c2cnc(N3CCC(=NOCCO)CC3)nc2)c1F [Example 85, 2-Fluoro-3-(2-{4-[(2-hydroxyethoxy)imino]piperidin-1-yl}pyrimidin-5-yl)benzyl carbamimidoylcarbamate] | ≥ 50 | ≥ 50
5 | CON=C1CCN(c2ncc(-c3cccc(COC(=O)NC(=N)N)c3F)cn2)CC1 [Example 51, 2-Fluoro-3-{2-[4-(methoxyimino)piperidin-1-yl]pyrimidin-5-yl}benzyl carbamimidoylcarbamate] |  | ≥ 50
6 | N=C(N)NC(=O)OCc1cccc(-c2cnc(N3CC(=NOCC(CO)COC(=O)c4ccccc4)C3)nc2)c1F (centres unmarked) [Example 83, 3-[({1-[5-(3-{[(Carbamimidoylcarbamoyl)oxy]methyl}-2-fluorophenyl)pyrimidin-2-yl]azetidin-3-ylidene}amino)oxy]-2-(hydroxymethyl)propyl benzoate] |  | ≥ 50
7 | COCCON=C1CCN(c2ncc(-c3cccc(COC(=O)NC(=N)N)c3F)cn2)CC1 [Example 60, 2-Fluoro-3-(2-{4-[(2-methoxyethoxy)imino]piperidin-1-yl}pyrimidin-5-yl)benzyl carbamimidoylcarbamate] | ≥ 50 | ≥ 50
8 | COCCON=C1CN(c2ncc(-c3cccc(COC(=O)NC(=N)N)c3F)cn2)C1 [Example 12, 2-Fluoro-3-(2-{3-[(2-methoxyethoxy)imino]azetidin-1-yl}pyrimidin-5-yl)benzyl carbamimidoylcarbamate] | ≥ 50 | ≥ 50
9 | CCON=C1CCN(c2ncc(-c3cccc(COC(=O)NC(=N)N)c3F)cn2)CC1 [Example 53, 3-{2-[4-(Ethoxyimino)piperidin-1-yl]pyrimidin-5-yl}-2-fluorobenzyl carbamimidoylcarbamate] |  | ≥ 50
10 | CC(=O)OCCON=C1CN(c2ncc(-c3cccc(COC(=O)NC(=N)N)c3F)cn2)C1 [Example 25, 2-[({1-[5-(3-{[(Carbamimidoylcarbamoyl)oxy]methyl}-2-fluorophenyl)pyrimidin-2-yl]azetidin-3-ylidene}amino)oxy]ethyl acetate] | ≥ 50 | 
11 | N=C(N)NC(=O)OCc1cccc(-c2cnc(N3CC(=NOCc4ccccc4)C3)nc2)c1F [Example 135, 3-(2-{3-[(Benzyloxy)imino]azetidin-1-yl}pyrimidin-5-yl)-2-fluorobenzyl carbamimidoylcarbamate] | ≥ 50 | 
12 | N=C(N)NC(=O)OCc1cccc(-c2cnc(N3CC(=NOCC(F)(F)F)C3)nc2)c1F [Example 7, 2-Fluoro-3-(2-{3-[(2,2,2-trifluoroethoxy)imino]azetidin-1-yl}pyrimidin-5-yl)benzyl carbamimidoylcarbamate] | ≥ 50 | 

Now from value to compound:

Row | inhibition at 0.03 µM [1] [%] | inhibition in vivo at 0.3 mg/kg [2] [%] | Structure (SMILES)
13 | ≥ 50 | ≥ 50 | N#CCCCON=C1CCN(c2ncc(-c3cccc(COC(=O)NC(=N)N)c3F)cn2)CC1 [Example 166, 3-(2-{4-[(3-Cyanopropoxy)imino]piperidin-1-yl}pyrimidin-5-yl)-2-fluorobenzyl carbamimidoylcarbamate]
14 | ≥ 50 | ≥ 50 | N=C(N)NC(=O)OCc1cccc(-c2cnc(N3CCC(=NOCCN4C(=O)CCC4=O)CC3)nc2)c1F [Example 177, 3-[2-(4-{[2-(2,5-Dioxopyrrolidin-1-yl)ethoxy]imino}piperidin-1-yl)pyrimidin-5-yl]-2-fluorobenzyl carbamimidoylcarbamate]
15 | ≥ 50 | ≥ 50 | N=C(N)NC(=O)OCc1cccc(-c2cnc(N3CCC(=NOc4ncccn4)CC3)nc2)c1F [Example 183, 2-Fluoro-3-(2-{4-[(pyrimidin-2-yloxy)imino]piperidin-1-yl}pyrimidin-5-yl)benzyl carbamimidoylcarbamate]
16 | ≥ 50 | ≥ 50 | CS(=O)(=O)CCON=C1CCN(c2ncc(-c3cccc(COC(=O)NC(=N)N)c3F)cn2)CC1 [Example 167, 2-Fluoro-3-[2-(4-{[2-(methylsulfonyl)ethoxy]imino}piperidin-1-yl)pyrimidin-5-yl]benzyl carbamimidoylcarbamate]
17 | ≥ 50 | ≥ 50 | Cn1cc(CON=C2CCN(c3ncc(-c4cccc(COC(=O)NC(=N)N)c4F)cn3)CC2)cn1 [Example 174, 2-Fluoro-3-[2-(4-{[(1-methyl-1H-pyrazol-4-yl)methoxy]imino}piperidin-1-yl)pyrimidin-5-yl]benzyl carbamimidoylcarbamate]
18 | ≥ 50 | ≥ 50 | Cn1ccc(CON=C2CCN(c3ncc(-c4cccc(COC(=O)NC(=N)N)c4F)cn3)CC2)n1 [Example 169, 2-Fluoro-3-[2-(4-{[(1-methyl-1H-pyrazol-3-yl)methoxy]imino}piperidin-1-yl)pyrimidin-5-yl]benzyl carbamimidoylcarbamate]
19 |  | ≥ 50 | CCOC(=O)CCON=C1CCN(c2ncc(-c3cccc(COC(=O)NC(=N)N)c3F)cn2)CC1 [Example 149, Ethyl 3-[({1-[5-(3-{[(carbamimidoylcarbamoyl)oxy]methyl}-2-fluorophenyl)pyrimidin-2-yl]piperidin-4-ylidene}amino)oxy]propanoate]
20 | ≥ 50 |  | CCN1CC(ON=C2CN(c3ncc(-c4cccc(COC(=O)NC(=N)N)c4F)cn3)C2)C1 [Example 142, 3-[2-(3-{[(1-Ethylazetidin-3-yl)oxy]imino}azetidin-1-yl)pyrimidin-5-yl]-2-fluorobenzyl carbamimidoylcarbamate]
